Like-named read-outs stand apart in the source and are kept apart here.
Assays:
[1] = system: DU-145 human prostate tumor xenografts
Description: The purpose of the experiment was to evaluate the antitumor efficacy of methotrexate (MTX) and its orotate derivative (MTX orotate) against subcutaneously (SC) implanted DU=145 human prostate tumor xenografts in male athymic NCr-nu/nu mice.
Drug formulation—2.7 mg/mL solution of MTX (Sigma-Aldrich, catalog no. M9929, lot no. 114K1572 used on days 15 and 19, and catalog no. A6770, lot no. 21H0324 used on days 19, 23 and 35) was formulated fresh on each day of treatment in 2% sodium bicarbonate in water for injection (WFI). The 2.7 mg/mL solution was diluted with sodium bicarbonate in WFI to 1.8 and 1.2 mg/mL.
A 4.25 mg/mL solution of MTX orotate was formulated fresh on each day of treatment in 2% bicarbonate in WFI to 2.83 and 1.89 mg/mL. Control group was treated with 2% sodium bicarbonate in WFI. Both compounds and the vehicle were administered to mice by exact individual animal's body weight on each day of treatment with the injection volume being 0.1 mL/10 g of body weight.
Seven groups of 10 mice per group were injected intraperitoneally (ip) once every four days for a total of 3 injections (q4d×3, Days 15, 19, 23 and 35) as follows: Group 1—2% sodium bicarbonate, Groups 2, 3 and 4 with MTX at 27, 18, and 12 mg/kg/dose, respectively. Groups 5, 6, and 7 were treated with MTX orotate at dosages 42.5, 28.3 and 18.9 mg/kg/dose respectively (based on MW of MTX=454.4 and MW of MTX orotate=714.7).
Tumors were measured and volume determined using formula L×W^2/2=mm^3; and weight calculated assuming 1 mm^3=1 mg. The study was terminated 47 days after tumor implantation

[2] = Pharmacokinetic analysis and oral bioavailability in rats; format: in vivo, male Spagrue-Dawley rats; details: rat; for AUC: estimated for infinity; for half-life: read-out: Elim Half-Life (converted)
Description: A PK study was done in rats to determine the PK profile and oral bioavailability of methotrexate and compared this to the orotate salt of methotrexate. This was done in male Spagrue-Dawley rats. This compound was administered intravenously (IV; 10 mg/kg; for methotrexate and 15.7 mg/kg for methotrexate orotate 1 mL/kg; vehicle 1% NaHCO3 in 0.9% saline) or via oral gavage (PO; 100 mg/kg methotrexate; 157 mg/kg methotrexate orotate; vehicle 1% NaHCO3 in 0.9% saline) and the plasma levels of compound in the plasma were determined at specified times. By calculating the ratio of the area under the curve for the compound concentrations (estimated for infinity as is typically done) for PO vs IV, percent oral bioavailability can be determined. Of course normalization for the different doses given IV vs PO was taken into account for determination of oral bioavailability.

[3] = in vivo; cited from earlier work
[4] = IV, 15.7 mg/kg methotrexate orotate
[5] = PO, 157 mg/kg methotrexate orotate
[6] = male, Sprague-Dawley, plasma, IV, 10 mg/kg methotrexate
[7] = male, Sprague-Dawley, plasma, PO, 100 mg/kg methotrexate

CN(Cc1cnc2nc(N)nc(N)c2n1)c1ccc(C(=O)NC(CCC(=O)O)C(=O)[O-])cc1.O=C(O)c1cc(=O)[nH]c(=O)[nH]1.[Na+] (stereo not drawn) [Methotrexate Orotate, sodium methotrexate orotate]
Tumor weight - inhibition of growth of DU-145 xenografts ([1]; MTX orotate highest dose (42.5 mg/kg/dose) ip q4d): marginal inhibition | Tumor weight - tumor inhibition ([1]; MTX orotate two low doses (28.3 and 18.9 mg/kg/dose) ip q4d, SC DU-145 xenografts): no effect | Tumor growth compared with MTX ([1]; ip, equivalent dosages, SC DU-145 xenografts): no significant difference | Apparent volume of distribution and plasma clearance rate relative to methotrexate ([2]; IV): higher | Area under the curve (AUC) relative to methotrexate ([2]; IV): slightly lower | Cl [2, 4]: 263.08 ± 17.08 mL/min/kg | Cmax plasma [2, 4]: 2843 ± 121 ng/mL | Elim Half-Life [2, 4]: 0.47 ± 0.00 h | Tmax [2, 4]: 6 ± 0 min | Vd [2, 4]: 10804 ± 733 mL/kg | AUC [2, 4]: 792 ± 62 ng·mL·h | Elimination half-life relative to methotrexate ([2]; PO): shorter | Rate of getting into the plasma relative to methotrexate ([2]; PO): somewhat slower | % bioavailability (oral) ([2]; PO 157 mg/kg vs IV 15.7 mg/kg methotrexate orotate, dose-normalized AUC ratio): 14% | Cl [2, 5]: 3233.05 ± 518.18 mL/min/kg | Cmax plasma [2, 5]: 59 ± 20 ng/mL | Elim Half-Life [2, 5]: 17.7 ± 8.0 h | Tmax [2, 5]: 96 ± 24 min | Vd [2, 5]: 3345180 ± 472947 mL/kg | AUC [2, 5]: 1140 ± 390 ng·mL·h

CN(Cc1cnc2nc(N)nc(N)c2n1)c1ccc(C(=O)N[C@@H](CCC(=O)O)C(=O)O)cc1 [Methotrexate, methotrexate]
Tumor weight - tumor inhibition ([1]; MTX 27, 18 and 12 mg/kg/dose ip q4d, SC DU-145 xenografts): no effect | Bound to plasma proteins [3]: approximately 50% | Elimination from plasma, gamma half life [3]: 27 h | Cmax [2, 6]: 3780 ± 636 ng/mL | clearance [2, 6]: 157 mL/min/kg | half-life [2, 6]: 26.4 ± 0.6 min | Tmax ([2]; male, Sprague-Dawley, plasma, IV, 10 mg/kg methotrexate, read-out: Tmax): 6 min | Vd ([2]; male, Sprague-Dawley, plasma, IV, 10 mg/kg methotrexate, read-out: Vd): 6120 ± 671 mL/kg | bioavailability ([2]; male, Sprague-Dawley, plasma, PO 100 mg/kg vs IV 10 mg/kg methotrexate, dose-normalized AUC ratio): 6% | Cmax [2, 7]: 51 ± 12 ng/mL | half-life [2, 7]: 1880 ± 924 min | Tmax ([2]; male, Sprague-Dawley, plasma, PO, 100 mg/kg methotrexate, read-out: Tmax): 54 ± 36 min | AUC ([2]; IV, 10 mg/kg methotrexate): 1151 ± 142 ng·mL·h | Cl ([2]; PO, 100 mg/kg methotrexate): 2537.12 ± 257.27 mL/min/kg | Vd ([2]; PO, 100 mg/kg methotrexate): 6811662 ± 3415946 mL/kg | AUC ([2]; PO, 100 mg/kg methotrexate): 671 ± 70 ng·mL·h
